Structures can show the parent of a compound that is named as a salt.
Key:
[1] = In vivo pharmacokinetics studies, dMN + NLX-HCL gel with or without heating pod; set-up: species or system albino Hartley guinea pigs; settings: for enhancement in plasma concentration achieved with heat (vs no heat): 1 dMN; for plasma concentration, 2 dMN vs 1 dMN: non-heated
From the text: In Vivo Pharmacokinetics Studies. Preliminary in vivo data were collected in male (n=3) and female (n=2) albino Hartley guinea pigs (a common small animal model for dermal drug studies). All study procedures were IACUC approved. A crossover study design was used, dMN with and without use of heat (described in Table 5). The dorsal hair was clipped (not shaved) a day prior to studies. Either one or two dMN arrays (for a total of 100 or 200 dMNs total) were applied to the dorsal skin of the animal using gentle thumb pressure, and the backing of the dMN was removed.
The heat reaction was initiated by removing the protective tape cover. This was the same approach and conditions as used for the in vitro studies. […] Blood samples were collected at 0, 5, 10, 15, 30, 60, 75, 90, and 120 min. Plasma was separated from the blood immediately after collection and stored at −80° C. until analysis. A thermocouple probe in contact with the skin during the in vivo studies was used to record the skin temperature at the same timepoints as blood sampling.
The mixture was vortexed for 60 sec and centrifuged at 10,000 rpm for 15 min. The supernatant ethyl acetate layer was pipetted off and placed in a 5 mL glass tube under dry nitrogen to evaporate the organic layer. The dried residues were reconstituted with 100 μL 0.1% formic acid and analyzed using LC/MS.
Data Analysis. […] It is understood that when discussed herein, 1 dMN refers to a condition with a single, 100 microneedle array and 2 dMN refers to a condition with two arrays. All conditions were compared with and without the heating pod. […] For all analyses, p<0.05 was considered statistically significant.

[2] = in vivo; cited from earlier work

| Compound | enhancement in plasma concentration achieved with heat (vs no heat) ([1]; 5 min) | enhancement in plasma concentration achieved with heat (vs no heat) ([1]; 15 min) | enhancement in plasma concentration achieved with heat (vs no heat) ([1]; 30 min) | enhancement in plasma concentration achieved with heat (vs no heat) ([1]; 60 min) | AUC with heat compared to the same conditions without heat ([1]; 2 dMN, 0-5, 0-15, 0-30 and 0-60 min, p<0.05) | enhancement of plasma concentrations by applied heat ([1]; 2 dMN, 5 min) | enhancement of plasma concentrations by applied heat ([1]; 2 dMN, 15 min) | enhancement of plasma concentrations by applied heat ([1]; 2 dMN, 30 min) | enhancement of plasma concentrations by applied heat ([1]; 2 dMN, 60 min) | normalized plasma concentrations, heated vs dMN without heat ([1]; 2 or 1 dMN arrays) | normalized plasma concentrations, 1 vs 2 dMN ([1]; heated or not heated, at 5, 15, 30 and 60 min) | AUC 2 dMN vs 1 dMN ([1]; heated, all time ranges tested, p<0.05) | plasma concentration, 2 dMN vs 1 dMN ([1]; 5 min) | plasma concentration, 2 dMN vs 1 dMN ([1]; 15 min) | plasma concentration, 2 dMN vs 1 dMN ([1]; 30 min) | plasma concentration, 2 dMN vs 1 dMN ([1]; 60 min) | NLX population clearance [2] |
| --- | --- | --- | --- | --- | --- | --- | --- | --- | --- | --- | --- | --- | --- | --- | --- | --- | --- |
| C=CCN1CC[C@]23c4c5ccc(O)c4O[C@H]2C(=O)CC[C@@]3(O)[C@H]1C5 [NLX-HCL, naloxone hydrochloride] | 2.4 | 1.3 | 1.2 | 1.4 | significantly higher | 2.1 × | 2.2 × | 2.1 × | 1.8 × | not significantly higher | no statistically significant differences | significantly higher | 2.1 × | 1.6 × | 2.0 × | 2.3 × |  |
| C=CCN1CC[C@]23c4c5ccc(O)c4O[C@H]2C(=O)CC[C@@]3(O)[C@H]1C5 [NLX, naloxone] |  |  |  |  |  |  |  |  |  |  |  |  |  |  |  |  | 91 L/h |

From patent US20240390660A1, “APPARATUS, SYSTEMS AND METHODS FOR TRANSDERMAL DRUG DELIVERY, PERMEABILITY ENHANCEMENT AND AUGMENTATION” (University of Iowa Research Foundation, priority 2021, published 2024)
